Data from patent publication US7538090B1, “Exogenous surfactant protein B mimic” (Los Angeles Biomedical Research Institute at Harbor-UCLA …, priority 2004, dated 2009).
Entries after “also recorded” stand apart in the source; their conditions may differ.

Key:
lavaged rat model of RDS = test: Oxygenation response in lavaged rat model of RDS; format: in vivo; settings: for in vivo activity in the rat RDS model system: FIGS. 6A and 6B (oxygenation and dynamic compliance)
Text: FIG. 6A illustrates an example of an oxygenation response of a lavaged rat model of RDS comparing INFASURF™, a known effective animal based (cow lung lavage that includes surfactant lipids and native Cow SP-B and SP—C proteins) supplement formulation (—◯—), pig native surfactant B in INFASURF™ lipids (—Δ—), Mini-B peptide in simulated INFASURF™ lipids (—▪—), the C-terminal domain of SP-B (residues 63-78) in the oxidized (--♦--) and reduced format (—∇--), a serine derivative the C-terminal domain of SP-B (residues 63-78) with cationic arginines (R) replaced with serine residues, in oxidized (—◯--) and (—∇—) format, the N-terminal domain of SP-B (residues 11 to 25 of native SP-B) in the monomer (—□—) and a dimer (—●--) conformation and ISPL alone (—Δ—). […] A Mini-B construct also compares favorably with the commercial preparation INFASURF™ that contains both the native SP-B and SP—C protein.
(§1) The activity of a Mini-B construct is very similar to that of the commercial preparation INFASURF™ that includes equimolar amounts of native SP-B in native lung surfactant lipids and native SP—C proteins typically used in present RDS therapies.

[1] = Surface shear viscosity measurements in ISPL lipid dispersion; format: physicochemical; settings: over surface pressures and compression-expansion cycles, FIG. 7
Text: Surface shear viscosity measurements of a Mini-B construct in a simulated INFASURF™ lipid dispersion ISPL (cow lung lavage lipids) is represented in FIG. 7.

[2] = Brewster Angle Microscope images of monolayer surfaces on the Langmuir trough; format: physicochemical; settings: Mini-B-ISPL lipids vs lipids alone; BAM images, FIG. 11
Text: Brewster Angle Microscope images of monolayer surfaces of Mini-B-ISPL lipids versus lipids alone on the Langmuir trough as a fimcfion of surface pressure is represented in FIG. 11. […] This Mini-B induced lipid aggregation in monolayers is typical of the effect of native surfactant protein B and surfactant B type peptides.
Brewster Angle Microscope images of monlayer surfaces of Mini-B-synthetic cow lung lipids compared with the commercial surfactant preparation INFASURF™ that contains native SP-B and SP-C proteins is represented in FIG. 12. Preparations containing Mini-B aggregate lipids were similar to the commercial surfactant preparation.

[3] = system: Rat RDS animal model system; test: Dynamic compliance measurements in the Rat RDS animal model system; format: in vivo; settings: peptide in simulated INFASURF lipids (ISPL), FIG. 6B
Text: FIG. 6B represents dynamic compliance measurements (a measure of lung mechanical plasticity) in the Rat RDS animal model system comparing INFASURF™ replacement formulation, pig native surfactant B in INFASURF™ lipids (—◯—), a Mini-B construct in simulated INFASURF™ lipids (—▪—), the C-terminal domain of SP-B (residues 63-78) in the oxidized (--♦--) and reduced (—∇--) format, a serine derivative the C-terminal domain of SP-B (residues 63-78) with cationic arginines (R) replaced with serine residues, in oxidized (—◯--) and (—∇—) format, the N-terminal domain of SP-B (residues 11 to 25 of native SP-B) in the monomer (—□—) and dimer (—●--) conformation and ISPL alone (—Δ—).
as §1

[4] = Langmuir trough surface activity (surface pressure upon compression, respreading); format: physicochemical; settings: in ISPL lipids vs lipids alone, FIG. 8, 9
Text: Langmuir trough measurements of a Mini-B construct in ISPL lipids are represented in FIG. 8. The peptide at two different concentrations is compared to lipids […]. Lipids alone on the Langmuir trough show very little change in surface pressure with compression of the air-water interface film. […] Higher concentrations of a Mini-B construct in the lipids further enhance the surface activity of the preparation and show the characteristic chances in surface pressure as a function of compression/decompression of the lipid-peptide surface film that are associated with optimal in vitro activity typical of lung surfactant preparations containing SP-B native protein.
FIG. 9 illustrates Langmuir trough measurements of a Mini-B construct in ISPL. The construct was measured at a single concentration to show the consistent pressure dependent reproducibility of the construct in the lipids that is an important criteria of an effective lung surfactant dispersion. Lipids alone on the Langmuir trough show very little change in surface pressure with compression of the air-water interface film. […]

| Substance | in vivo activity in the rat RDS model system (lavaged rat model of RDS) | shear surface viscosity [1] | lipid aggregation in monolayers [2] | dynamic compliance [3] | surface activity (surface pressure as a function of film compression) [4] | oxygenation response (lavaged rat model of RDS; lavaged rat model of RDS, peptide in simulated INFASURF lipids (ISPL), FIG. 6A) |
| --- | --- | --- | --- | --- | --- | --- |
| B11-25: N-terminal domain of SP-B (residues 11 to 25 of native SP-B) (CRALIKRIQAMIPKG; Pulmonary surfactant-associated protein B; UniProt P07988 211-225, looked up, fragment) [reference compound] | relatively ineffective in vivo activity |  |  |  |  |  |
| B63-78: C-terminal domain of SP-B (residues 63-78) (GRMLPQLVCRLVLRCS; Pulmonary surfactant-associated protein B; UniProt P07988 263-278, looked up, fragment) [reference compound] | relatively ineffective in vivo activity |  |  |  |  |  |
| CWLCRALIKRIQAMIPKGGRMLPQLVCRLVLRCS [Mini-B, disulfide stabilized 34 residue cyclic peptide joining SP-B residues 8 to 25 and 63 to 78] | exceeds that observed for native pig SP-B in synthetic surfactant lipids | remains constant at a large range of surface pressures | aggregate | performs very nearly as well as the commercial preparation | enhances the surface activity | outperforms all of the peptide segments of Mini-B separately; also recorded: closely parallels the oxygenation response that is observed for full-length native SP-B protein |
